Results as given in US4517202A, “Prostaglandin analogues” (May & Baker Limited, priority 1982, dated 1985).
≈ marks a conversion by molar mass, not a printed value. Like-named read-outs stand apart in the source and are kept apart here. Values belong to the molecule of their own block, whether it stands above or below them.

What was measured:
diastolic blood pressure = test: fall in diastolic blood pressure in anaesthetised rats; assay type: in vivo; conditions: rats anaesthetised with pentobarbitone; intravenously at a rate of 45 μg/kg animal body weight
Experimental: In other laboratory tests, compound B produced a 25% fall in diastolic blood pressure in rats (anaesthetised with pentobarbitone) when administered intravenously at a rate of 45 μg/kg animal body weight.

[1] = tested on: collagen-induced β-thromboglobulin release; test: inhibition of collagen-induced β-thromboglobulin release in vitro in human blood; assay type: cell-based; conditions: read-out: ED50 (concentration which produced 50% inhibition of the β-thromboglobulin release)
[2] = cited from earlier work
[3] = tested on: artery and some other kinds of smooth muscle; conditions: cited from earlier work
[4] = tested on: arachidonic acid-induced blood platelet aggregation of the human; conditions: human platelets; cited from earlier work
blood platelets = conditions: cited from earlier work
[5] = isomerisation of (Z)-isomer at ambient temperature; assay type: physicochemical

IC50 [1]: 5 µg/mL (≈ 13.9 µM)
SMILES: O=C(O)CCC/C=C1\C[C@H]2[C@H](CC[C@@H]2/C=C/[C@@H](O)C2CCCCC2)C1=O (relative stereo) [Compound B, (±)-(5E,13E)-(9S,15S)-6a-oxo-6,9-methano-15-cyclohexyl-15-hydroxy-16,17,18,19,20-pentanorprosta-5,13-dienoic acid]
fall in diastolic blood pressure (diastolic blood pressure): 25%

IC50 [1]: 34 µg/mL
SMILES: CCCCCC(O)/C=C/[C@H]1CC[C@@H]2C(=O)/C(=C/CCCC(=O)O)C[C@@H]21 (relative stereo) [Compound E, (±)-(5E,13E)-(9S), [mixture of (15R) and (15S)]-6a-oxo-6,9-methano-15-hydroxyprosta-5,13-dienoic acid]

IC50 [1]: < 17 µg/mL
SMILES: CCCCCC(O)/C=C/[C@H]1CC[C@@H]2C(=O)/C(=C\CCCC(=O)O)C[C@@H]21 (relative stereo) [Compound F, (±)-(5Z,13E)-(9S), [mixture of (15R) and (15S)]-6a-oxo-6,9-methano-15-hydroxyprosta-5,13-dienoic acid]

IC50 [1]: < 17 µg/mL
SMILES: O=C(O)CCC/C=C1\C[C@H]2[C@H](CC[C@@H]2/C=C/C(O)C2CCCCC2)C1=O (relative stereo) [Compound I, (±)-(5E,13E)-(9S),[mixture of (15R) and (15S)]-6a-oxo-6,9-methano-15-cyclohexyl-15-hydroxy-16,17,18,19,20-pentanorprosta-5,13-dienoic acid]

SMILES: CCCCC[C@H](O)/C=C/[C@@H]1[C@H]2C/C(=C/CCCC(=O)O)O[C@H]2C[C@H]1O [PGI2, (5Z,13E)-(9S,11R,15S)-6,9-epoxy-11,15-dihydroxyprosta-5,13-dienoic acid]
time to deactivation in a buffer solution ([2]; pH 7.6, 22° C.): 20 min
time to deactivation in a buffer solution ([2]; pH 7.6, 37° C.): 10 min
activity on the artery and some other kinds of smooth muscle [3]: strong relaxing activity
inhibition of arachidonic acid-induced blood platelet aggregation [4]: strongly inhibits

SMILES: CCCCC[C@H](O)/C=C/[C@H]1O[C@H]2C[C@H](O2)[C@@H]1C/C=C\CCCC(=O)O [thromboxane A2]
activity on the artery and some other kinds of smooth muscle [3]: contracting activity
aggregating activity on blood platelets (blood platelets): aggregating activity

isomerisation back to the (E)-isomer [5]: slowly isomerised back to the (E)-isomer
SMILES: O=C(O)CCC/C=C1/C[C@H]2[C@H](CC[C@@H]2/C=C/[C@@H](O)C2CCCCC2)C1=O (relative stereo) [(Z)-isomer]
